The target in one experiment is T1, HER2 (Homo sapiens, UniProt P04626).
T1 construct: BT474 and N87 cell lines which endogenously overexpress the HER2 wildtype (WT) protein; endogenous in cells; host or cells: BT474, N87
Put plainly: HER2 occupancy assay in BT474 cells. The experiment is classed as cell-based. The settings on record: concentration at which 50% of HER2 is irreversible bound, read-out: BT474 HER2 Occ. Here is the method: In order to assess free HER2 protein, a biotinylated probe was utilized. BT474, N87, and Ba/F3-HER2YVMA cells were treated with test compound as described for HER2 signaling. After compound treatment, cells were washed three times with cold phosphate buffer saline (PBS, Life Technologies, Carlsbad, CA), and lysed in modified occupancy lysis buffer prepared with an irreversible biotinylated tool compound (1 μM) in 25 mM Tris pH 7.5, 150 mM NaCl, 1% Triton, and supplemented with cOmplete, EDTA-free Protease inhibitor cocktail (Roche), Phosphatase Inhibitor Cocktails 2 and 3 (Sigma-Aldrich), and 1 mM PMSF (Sigma-Aldrich).
To determine % occupancy, lysates were loaded into duplicate plates of the phospho (Tyr1248)/total ErbB2 whole cell lysate MSD kit (Meso-Scale Discovery) and incubated overnight. Plates were washed and incubation with either HER2-sulfoTag (1:50, Meso Scale Discovery) or Strep-Sulfo Tag (1:1000, Meso Scale Discovery), for detection of […]. A standard curve of untreated cells in serial dilution was included in each plate to independently fit streptavidin (Free HER2) and total HER2 MSD signals; non-specific signal (BSA control spots) was subtracted from each well. Free HER2 was then normalized by total HER2 for each sample. The results are reported as % DMSO control. The normalized data was fitted using a sigmoidal curve analysis program (Graph Pad Prism version 6) with variable Hill slope to determine EC50 values. The results are provided in Table 4, under columns titled “BT474-HER2 Occ”, “N87-HER2 Occ”, and “Ba/F3 YVMA-HER2 Occ”. HER2 Occ is the concentration of test compound at which 50% of HER2 is irreversible bound.

Another experiment has as its target HER2YVMA (Homo sapiens, UniProt P04626, INS775YVMA). Put plainly: HER2 signaling (pHER2) in BEAS2B-HER2YVMA cells. The settings on record: read-out: BEAS2B YVMA pHER2 EC50. On the set-up: expressed in transfected cells; host or cells: HEK293 (pool), Ba/F3 (clones), BEAS2B (clones); lentiviral vector pCDH-CMV-MCS-EF1-Neo. The experiment is classed as cell-based. Here is the method: Cell culture, plasmid cloning, and lentiviral transduction were carried out according to standard procedures. The Human HER2 cDNA construct in pCMV6-Entry for the HER2 wildtype (WT) expression was obtained from Origene. The HER2 cDNA including the 12-nucleotide insertion corresponding to YVMA insertion (HER2YVMA) was codon optimized, synthesized and cloned by GenScript (Piscataway, NJ) in pcDNA3.1. The lentiviral constructs expressing HER2YVMA and HER2 WT were sub-cloned using PCR at System Biosciences (SBI, Mountainview, CA) into lentiviral vectors pCDH-CMV-MCS-EF1-Neo and lentiviral particles were generated.
Engineered lines expressing HER2YVMA and HER2 WT were prepared in HEK293 (human embryonic kidney cells), Ba/F3 (Interleukin 3 (IL3)-dependent murine pro B cell line), and BEAS2B (primary immortalized human bronchial epithelial cell line). […]
HER2 signaling was assessed in BT474 and N87 cell lines which endogenously overexpress the HER2 wildtype (WT) protein, in NCI-H1781 cells which endogenously expresses a HER2 mutant protein containing a VC insertion in the kinase domain (HER2VC or G776delinsVC), and in engineered cell lines transduced to express the Her2 mutant protein containing the YVMA insertion (Hek293-HER2YVMA and BEAS2B-HER2YVMA). […]
HER2 signaling was evaluated using phospho (Tyr1248)/total ErbB2 whole cell lysate MSD plates (Meso-Scale Discovery, Gaithersburg, MD). […]

T1 sequence (P04626 23-1255): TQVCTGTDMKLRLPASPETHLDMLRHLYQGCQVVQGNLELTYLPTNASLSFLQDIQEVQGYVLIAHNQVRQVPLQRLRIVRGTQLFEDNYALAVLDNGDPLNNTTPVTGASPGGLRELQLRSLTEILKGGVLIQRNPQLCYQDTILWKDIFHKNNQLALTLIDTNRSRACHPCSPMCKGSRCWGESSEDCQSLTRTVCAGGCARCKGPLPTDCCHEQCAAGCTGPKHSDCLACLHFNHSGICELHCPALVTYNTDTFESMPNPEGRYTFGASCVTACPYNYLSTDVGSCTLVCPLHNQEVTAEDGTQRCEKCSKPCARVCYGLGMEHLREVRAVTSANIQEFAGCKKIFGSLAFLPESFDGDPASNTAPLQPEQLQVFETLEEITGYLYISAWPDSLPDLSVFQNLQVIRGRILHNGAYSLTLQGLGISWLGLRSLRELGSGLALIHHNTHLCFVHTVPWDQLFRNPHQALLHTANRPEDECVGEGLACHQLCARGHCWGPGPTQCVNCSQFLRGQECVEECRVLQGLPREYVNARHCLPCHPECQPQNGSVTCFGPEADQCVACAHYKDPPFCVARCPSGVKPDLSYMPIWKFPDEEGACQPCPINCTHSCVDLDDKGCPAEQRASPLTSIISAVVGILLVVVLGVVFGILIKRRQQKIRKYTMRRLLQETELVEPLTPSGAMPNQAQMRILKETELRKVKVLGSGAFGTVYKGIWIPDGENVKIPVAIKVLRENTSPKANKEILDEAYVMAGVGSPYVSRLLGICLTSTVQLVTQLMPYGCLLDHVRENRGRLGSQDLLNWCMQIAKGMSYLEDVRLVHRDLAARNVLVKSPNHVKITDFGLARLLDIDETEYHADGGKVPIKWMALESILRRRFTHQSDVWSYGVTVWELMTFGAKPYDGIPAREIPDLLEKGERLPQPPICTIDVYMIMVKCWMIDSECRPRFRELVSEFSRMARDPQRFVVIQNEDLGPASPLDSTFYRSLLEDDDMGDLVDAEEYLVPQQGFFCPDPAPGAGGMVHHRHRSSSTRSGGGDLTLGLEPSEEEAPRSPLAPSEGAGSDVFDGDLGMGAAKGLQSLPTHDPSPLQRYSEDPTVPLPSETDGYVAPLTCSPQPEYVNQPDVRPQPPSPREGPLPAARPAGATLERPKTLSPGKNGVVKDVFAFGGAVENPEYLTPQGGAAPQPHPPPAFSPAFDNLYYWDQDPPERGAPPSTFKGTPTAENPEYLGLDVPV
HER2YVMA, sequence (P04626 with tags, fused parts or gaps INS775YVMA): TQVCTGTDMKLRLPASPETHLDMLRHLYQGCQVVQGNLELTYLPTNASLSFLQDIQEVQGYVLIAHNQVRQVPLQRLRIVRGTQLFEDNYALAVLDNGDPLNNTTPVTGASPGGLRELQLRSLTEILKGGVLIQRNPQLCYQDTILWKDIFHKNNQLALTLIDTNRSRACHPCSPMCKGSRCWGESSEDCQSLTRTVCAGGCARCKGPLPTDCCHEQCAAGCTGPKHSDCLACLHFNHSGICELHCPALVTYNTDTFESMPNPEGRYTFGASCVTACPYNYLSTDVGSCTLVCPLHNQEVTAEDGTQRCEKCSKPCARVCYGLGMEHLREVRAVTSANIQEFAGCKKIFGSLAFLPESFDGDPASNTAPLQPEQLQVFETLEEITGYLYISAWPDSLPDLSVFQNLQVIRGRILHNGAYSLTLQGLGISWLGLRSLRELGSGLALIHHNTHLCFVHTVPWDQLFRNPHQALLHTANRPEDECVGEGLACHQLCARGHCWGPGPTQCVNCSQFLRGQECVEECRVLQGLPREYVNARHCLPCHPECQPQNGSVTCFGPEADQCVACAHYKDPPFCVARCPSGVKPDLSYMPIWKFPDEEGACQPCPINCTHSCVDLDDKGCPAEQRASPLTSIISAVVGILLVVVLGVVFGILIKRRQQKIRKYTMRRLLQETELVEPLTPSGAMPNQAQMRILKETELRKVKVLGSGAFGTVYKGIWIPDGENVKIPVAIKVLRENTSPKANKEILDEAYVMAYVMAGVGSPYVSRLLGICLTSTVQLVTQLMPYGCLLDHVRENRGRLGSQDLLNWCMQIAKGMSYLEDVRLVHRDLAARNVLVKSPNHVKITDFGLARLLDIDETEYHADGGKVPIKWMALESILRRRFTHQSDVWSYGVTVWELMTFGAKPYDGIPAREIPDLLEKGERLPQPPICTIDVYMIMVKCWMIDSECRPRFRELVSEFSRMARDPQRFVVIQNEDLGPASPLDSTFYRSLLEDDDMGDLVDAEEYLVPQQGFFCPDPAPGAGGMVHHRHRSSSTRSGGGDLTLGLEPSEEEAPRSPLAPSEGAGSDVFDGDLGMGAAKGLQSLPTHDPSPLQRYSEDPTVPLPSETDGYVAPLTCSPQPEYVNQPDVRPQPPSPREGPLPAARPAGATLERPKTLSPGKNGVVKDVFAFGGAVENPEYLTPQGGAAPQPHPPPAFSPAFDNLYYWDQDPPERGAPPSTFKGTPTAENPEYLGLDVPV

As for `Cc1ccc(Oc2ccc(Nc3ncnc4sc5c(c34)CCN(C(=O)/C=C/CN(C)C)C5)cc2C)cn1` [Compound 8, (E)-4-(Dimethylamino)-1-(4-((3-methyl-4-((6-methylpyridin-3-yl)oxy)phenyl)amino)-5,6-dihydropyrido[4′,3′:4,5]thieno[2,3-d]pyrimidin-7(8H)-yl)but-2-en-1-one], the EC50 at HER2 and on HER2YVMA was less than 100 nM throughout.
For the compound `Cc1cc(Nc2ncnc3sc4c(c23)CCN(C(=O)/C=C/CN2CCOCC2)C4)ccc1Oc1ccc2ncnn2c1` [Compound 12], the EC50 on HER2 was less than 100 nM.

For the origin of these results see patent US20240391931A1 (Bristol-Myers Squibb Company, priority 2021, published 2024).
